Measured values reported in US6133249A, “Phospholipid and propylene glycol based lubricant” (MacNaught Medical Pty Limited, priority 1995, dated 2000).

Key:
[1] = test system: phospholipases; conditions: cited from earlier work
[2] = Retention of radio-labelled DPPC in the joint; type: in vivo, horse
Protocol: 4. More quantitative tests were undertaken in a further 4 horses administered radio-labelled 50 mg DPPC in 1 ml. The solution was injected into one contraleteral joint and the horse was sacrificed 2-10 days later when the cartilage was excised and synovial fluid collected for radio-assay.

[3] = Miscibility and physical state of phospholipid in propylene glycol; type: physicochemical; conditions: all concentrations / any proportion
[4] = Inflammatory reaction of horse joints (protein, ALP, leucocyte count, specific gravity); type: in vivo; conditions: 1 ml PG only, 6 horses
Protocol: 5. Having established the extreme lubricity imparted by exogenous DPPC and the fact that it is likely to remain in the joint for long enough to be worthwhile clinically, the next step was to look for any inflammatory reaction.
The following parameters were used as indices of inflammatory reaction:
2. Alkaline phosphatase (ALP)
6. In the next series of trials, the joints of 6 horses were injected with 1 ml of PG only to see whether the solvent was the major cause of the inflammatory reaction.
7. The main series of trials was then devised to compare the inflammatory reaction of the radiocarpal joint to the product (100 mg DPPC in 1 mlPG) with the reactions to other agents commonly injected into that joint in the normal course of clinical practice.
The agents selected for comparison were
1. A standard clinical (1 ml) dose of prilocaine--a local anaesthetic.
2. A standard clinical dose of hyaluromic acid (Hyartil)™ (1 ml) a joint lubricant.

[5] = cited from earlier work

CCCCCCCCCCCCCCCC(=O)OC[C@@H](COP(=O)([O-])OCC[N+](C)(C)C)OC(=O)CCCCCCCCCCCCCCC [D-enantiomeric alpha-DPPC, alpha-dipalmitoyl phosphatidylcholine]
metabolism by endogenous phospholipases [1]: cannot break down

CCCCCCCCCCCCCCCC(=O)OC[C@H](COP(=O)([O-])OCC[N+](C)(C)C)OC(=O)CCCCCCCCCCCCCCC [DPPC, Dipalmitoyl phosphatidylcholine]
retention of DPPC in the joint ([2]; conclusion): retained in the joint for long enough to enable lubrication to be maintained by monthly or fortnightly irrigation
time the joint would remain lubricated after an injection ([2]; inferred from half-lives): about one month
miscibility with propylene glycol [3]: totally miscible

CCCCCCCCCCCCCCCC(=O)OC[C@H](COP(=O)([O-])OCC[N+](C)(C)C)OC(=O)CCCCCCCCCCCCCCC [L-enantiomeric alpha-DPPC, alpha-dipalmitoyl phosphatidylcholine]
metabolism by endogenous phospholipases [1]: capable of metabolising

CC(O)CO (centres unmarked) [PG, propylene glycol]
solvent as the major cause of the inflammatory reaction [4]: This proved to be the case
inflammatory reaction relative to hyaluronic acid ([5]; mammalian joints and other articulations): somewhat less severe

hyaluronic acid
inflammatory reaction in animal tissues ([5]; in vivo): appreciable inflammatory reaction
